target: T1, MIF (Homo sapiens, UniProt P14174); assay: MIF tautomerase assay using pHPP as substrate; type: biochemical; settings: FIGS. 1-5; mean of multiple test results; read-out: pIC50 MIF tautomerase activity (converted)
T1 sequence (P14174 2-115 limits assumed): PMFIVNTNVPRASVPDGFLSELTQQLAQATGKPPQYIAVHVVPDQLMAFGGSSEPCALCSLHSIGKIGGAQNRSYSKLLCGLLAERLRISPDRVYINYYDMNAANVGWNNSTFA
Procedure, shortened: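 Cell-free keto-to-enol tautomerization of pHPP, enol product detected spectrophotometrically as borate complex. Final 3 nM MIF and 1.5 mM ketonic pHPP in DPBS/boric acid buffer with 0.025% BSA and 300 μM CHAPS, pH 6.0, room temperature; initial rates from absorbance slopes give mean pIC50.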

Row | IC50 | SMILES
1 | ≤ 100 nM | O=C(O)Cn1cnc2c(-n3ncc4c(C(=O)O)cccc43)nc(N3CCN(c4ccc(O)cc4)CC3)nc21 [Example 99, 1-(9-(carboxymethyl)-2-(4-(4-hydroxyphenyl)piperazin-1-yl)-9H-purin-6-yl)-1H-indazole-4-carboxylic acid]

same assay, conditions: inhibition of the MIF enzyme in vitro; mean of multiple test results; read-out: Tautomerase Inhibition pIC50 (converted)

Row | SMILES | IC50
2 | O=C(O)Cn1cnc2c(-n3nc(-c4nnn[nH]4)c4ccccc43)nc(N3CCN(c4ccc(O)cc4)CC3)nc21 [Example 135] | 10 to 97.7 nM
3 | Nc1nc(N2CC(O)(c3ccns3)C2)nc2c1ncn2-c1ccncc1 [Example 213, 1-(6-amino-9-(pyridin-4-yl)-9H-purin-2-yl)-3-(isothiazol-5-yl)azetidin-3-ol] | > 10000 nM
4 | CCS(=O)(=O)NC(=O)Cn1cnc2c(-n3ncc4ccccc43)nc(N3CCN(c4ccc(O)cc4)CC3)nc21 [Example 53, N-(ethylsulfonyl)-2-(2-(4-(4-hydroxyphenyl)piperazin-1-yl)-6-(1H-indazol-1-yl)-9H-purin-9-yl)acetamide] | 10 to 97.7 nM
5 | OCCn1cnc2c(N[C@@H](CO)Cc3ccccc3)nc(N3CCN(c4ccc(O)cc4)CC3)nc21 [Example 5, (R)-4-(4-(6-((1-hydroxy-3-phenylpropan-2-yl)amino)-9-(2-hydroxyethyl)-9H-purin-2-yl)piperazin-1-yl)phenol] | > 10000 nM
6 | O=C(Cn1cnc2c(-n3ncc4ccccc43)nc(N3CCN(c4ccc(O)cc4)CC3)nc21)NS(=O)(=O)c1ccccc1 [Example 97, 2-(2-(4-(4-hydroxyphenyl)piperazin-1-yl)-6-(1H-indazol-1-yl)-9H-purin-9-yl)-N-(phenylsulfonyl)acetamide] | 100 to 977 nM
7 | Nc1nc(N2CCC(O)(c3ccc(F)cc3)CC2)nc2c1ncn2-c1cccnc1 [Example 209, 1-(6-amino-9-(pyridin-3-yl)-9H-purin-2-yl)-4-(4-fluorophenyl)piperidin-4-ol] | 1000 to 9770 nM
8 | O=C(O)Cn1cnc2c(-n3nnc4c(C(=O)O)cccc43)nc(N3CCN(c4ccc(O)cc4)CC3)nc21 [Example 122, 1-(9-(carboxymethyl)-2-(4-(4-hydroxyphenyl)piperazin-1-yl)-9H-purin-6-yl)-1H-benzo[d][1,2,3]triazole-4-carboxylic acid] | 10 to 97.7 nM
9 | CN(CC(=O)O)c1nc(N2CCN(c3ccccc3)CC2)nc2c1ncn2-c1ccncc1 [Example 180, N-methyl-N-(2-(4-phenylpiperazin-1-yl)-9-(pyridin-4-yl)-9H-purin-6-yl)glycine] | > 10000 nM
10 | OCCn1cnc2c(-n3ncc4ccccc43)nc(N3CCC(O)(c4ccc(F)cc4)CC3)nc21 [Example 224, 4-(4-fluorophenyl)-1-(9-(2-hydroxyethyl)-6-(1H-indazol-1-yl)-9H-purin-2-yl)piperidin-4-ol] | 1000 to 9770 nM
11 | O=C(O)C(CC1CC1)n1cnc2c(-n3ncc4ccccc43)nc(N3CCN(c4ccc(O)cn4)CC3)nc21 (centres unmarked) [Example 151, 3-cyclopropyl-2-(2-(4-(5-hydroxypyridin-2-yl)piperazin-1-yl)-6-(1H-indazol-1-yl)-9H-purin-9-yl)propanoic acid] | 10 to 97.7 nM
12 | NC(=O)c1ccc(C2(O)CN(c3nc(N)c4ncn(-c5ccncc5)c4n3)C2)cc1 [Example 212, 4-(1-(6-amino-9-(pyridin-4-yl)-9H-purin-2-yl)-3-hydroxyazetidin-3-yl)benzamide] | 1000 to 9770 nM
13 | Nc1nc(N2CCC(n3cc(C(=O)O)cn3)CC2)nc2c1ncn2-c1ccncc1 [Example 195, 1-(1-(6-amino-9-(pyridin-4-yl)-9H-purin-2-yl)piperidin-4-yl)-1H-pyrazole-4-carboxylic acid] | > 10000 nM
14 | Oc1ccc(C2(O)CCN(c3nc(Nc4ccncc4)c4nc[nH]c4n3)CC2)cc1 [Example 219, 4-(4-hydroxyphenyl)-1-(6-(pyridin-4-ylamino)-9H-purin-2-yl)piperidin-4-ol] | 100 to 977 nM
15 | CC(C(=O)O)n1cnc2nc(N3CCN(c4ccc(O)cc4)CC3)nc(-n3ncc4ccccc43)c21 (centres unmarked) [Example 125, 2-(2-(4-(4-hydroxyphenyl)-piperazin-1-yl)-6-(1H-indazol-1-yl)-7H-purin-7-yl)propanoic acid] | 100 to 977 nM
16 | C=CCc1nn(-c2nc(N3CCN(c4ccc(O)cc4)CC3)nc3c2ncn3CC(=O)O)c2ccccc12 [Example 147, 2-(6-(3-allyl-1H-indazol-1-yl)-2-(4-(4-hydroxyphenyl)piperazin-1-yl)-9H-purin-9-yl)acetic acid] | 1000 to 9770 nM
17 | O=C(O)Cn1cnc2c(-n3nnc4c(CO)cccc43)nc(N3CCN(c4ccc(O)cc4)CC3)nc21 [Example 123, 2-(6-(4-(hydroxymethyl)-1H-benzo[d][1,2,3]triazol-1-yl)-2-(4-(4-hydroxyphenyl)piperazin-1-yl)-9H-purin-9-yl)acetic acid] | 10 to 97.7 nM
18 | O=C(O)Cn1cnc2c(-n3ncc4c(C(=O)O)cccc43)nc(N3CCN(c4ccc(O)cc4)CC3)nc21 [Example 99, 1-(9-(carboxymethyl)-2-(4-(4-hydroxyphenyl)piperazin-1-yl)-9H-purin-6-yl)-1H-indazole-4-carboxylic acid] | 10 to 97.7 nM
19 | O=C(O)CCn1cnc2c(N3CCc4ccccc43)nc(N3CCN(c4ccc(O)cc4)CC3)nc21 [Example 8, 3-(2-(4-(4-hydroxyphenyl)piperazin-1-yl)-6-(indolin-1-yl)-9H-purin-9-yl)propanoic acid] | 100 to 977 nM
20 | O=C(O)Cn1cnc2c(-n3nnc4cc(Cl)ccc43)nc(N3CCN(c4ccc(O)cc4)CC3)nc21 [Example 19, 2-(6-(5-chloro-1H-benzo[d][1,2,3]triazol-1-yl)-2-(4-(4-hydroxyphenyl)piperazin-1-yl)-9H-purin-9-yl)acetic acid] | 1000 to 9770 nM
21 | OCCn1cnc2c(-n3ncc4ccccc43)nc(N3CC(O)(c4ccccc4)C3)nc21 [Example 225, 1-(9-(2-hydroxyethyl)-6-(1H-indazol-1-yl)-9H-purin-2-yl)-3-phenylazetidin-3-ol] | 1000 to 9770 nM
22 | CC(C)S(=O)(=O)NC(=O)Cn1cnc2c(-n3ncc4ccccc43)nc(N3CCN(c4ccc(O)cc4)CC3)nc21 [Example 54, 2-(2-(4-(4-hydroxyphenyl)piperazin-1-yl)-6-(1H-indazol-1-yl)-9H-purin-9-yl)-N-(isopropylsulfonyl)acetamide] | 100 to 977 nM

The remaining lines, values ahead:

Row | IC50 | SMILES
23 | 100 to 977 nM | Oc1ccc(N2CCN(c3nc(NCCc4ccccc4)c4ncn(-c5cccnc5)c4n3)CC2)cc1 [Example 91, 4-(4-(6-(phenethylamino)-9-(pyridin-3-yl)-9H-purin-2-yl)piperazin-1-yl)phenol]
24 | > 10000 nM | Nc1nc(N2CCN(c3ccc(O)cc3)CC2)nc2c1ncn2C1CCNCC1 [Example 188, 4-(4-(6-amino-9-(piperidin-4-yl)-9H-purin-2-yl)piperazin-1-yl)phenol]
25 | 10 to 97.7 nM | CN(CCC(=O)O)c1nc(N2CCN(c3ccc(O)cc3)CC2)nc2c1ncn2-c1ccncc1 [Example 165, 3-((2-(4-(4-hydroxyphenyl)piperazin-1-yl)-9-(pyridin-4-yl)-9H-purin-6-yl)(methyl)amino)propanoic acid]
26 | > 10000 nM | C[C@H](Nc1nc(N2CCN(c3ccc(O)cc3)CC2)nc2c1ncn2CCO)c1ccccc1 [Example 4, (S)-4-(4-(9-(2-hydroxyethyl)-6-((1-phenylethyl)amino)-9H-purin-2-yl)piperazin-1-yl)phenol]
27 | 10 to 97.7 nM | Cc1nc(N2CCN(c3ccc(O)cc3)CC2)nc2c1ncn2-c1cccnc1 [Example 229, 4-(4-(6-methyl-9-(pyridin-3-yl)-9H-purin-2-yl)piperazin-1-yl)phenol]
28 | > 10000 nM | Nc1nc(N2CCN(c3ccc(O)cc3)CC2)nc2c1ncn2-c1ccc(F)cc1 [Example 73, 4-(4-(6-amino-9-(4-fluorophenyl)-9H-purin-2-yl)piperazin-1-yl)phenol]
29 | 1000 to 9770 nM | Oc1ccc(N2CCN(c3nc(NC4CCCC4)c4ncn(-c5cccnc5)c4n3)CC2)cc1 [Example 96, 4-(4-(6-(cyclopentylamino)-9-(pyridin-3-yl)-9H-purin-2-yl)piperazin-1-yl)phenol]
30 | > 10000 nM | Nc1nc(N2CCN(c3ccc(O)cc3)CC2)nc2c1ncn2-c1ccc(Cl)cc1 [Example 75, 4-(4-(6-amino-9-(4-chlorophenyl)-9H-purin-2-yl)piperazin-1-yl)phenol]
31 | 1000 to 9770 nM | Nc1nc(N2CCN(c3ccc(O)cc3)CC2)nc2c1ncn2-c1ccccc1F [Example 71, 4-(4-(6-amino-9-(2-fluorophenyl)-9H-purin-2-yl)piperazin-1-yl)phenol]
32 | 10 to 97.7 nM | Oc1ccc(N2CCN(c3nc(N4C[C@H](O)[C@@H](O)C4)c4ncn(-c5ccncc5)c4n3)CC2)cc1 [Example 171, (3S,4S)-1-(2-(4-(4-hydroxyphenyl)piperazin-1-yl)-9-(pyridin-4-yl)-9H-purin-6-yl)pyrrolidine-3,4-diol]
33 | 100 to 977 nM | N#Cc1ccc(-n2cnc3c(N)nc(N4CCN(c5ccc(O)cc5)CC4)nc32)cn1 [Example 86, 5-(6-amino-2-(4-(4-hydroxyphenyl)piperazin-1-yl)-9H-purin-9-yl)picolinonitrile]
34 | 1000 to 9770 nM | Cc1nc(N2CCN(c3ccc(O)cc3)CC2)nc2c1ncn2-c1cccc(O)c1Cl [Example 37, 2-chloro-3-(2-(4-(4-hydroxyphenyl)piperazin-1-yl)-6-methyl-9H-purin-9-yl)phenol]
35 | > 10000 nM | Cc1ccccc1-n1cnc2c(N)nc(N3CCN(c4ccc(O)cc4)CC3)nc21 [Example 76, 4-(4-(6-amino-9-(o-tolyl)-9H-purin-2-yl)piperazin-1-yl)phenol]
36 | 100 to 977 nM | OCCn1cnc2c(-n3cnc4ccccc43)nc(N3CCN(c4ccc(O)cc4)CC3)nc21 [Example 9, 4-(4-(6-(1H-benzo[d]imidazol-1-yl)-9-(2-hydroxyethyl)-9H-purin-2-yl)piperazin-1-yl)phenol]
37 | 1000 to 9770 nM | Nc1nc(N2CCN(c3ccc(O)cc3)CC2)nc2c1ncn2Cc1ccccc1 [Example 89, 4-(4-(6-amino-9-benzyl-9H-purin-2-yl)piperazin-1-yl)phenol]
38 | > 10000 nM | CCC(CO)N(C)c1nc(N2CCN(c3ccc(O)cc3)CC2)nc2c1ncn2-c1cccnc1 (centres unmarked) [Example 183, 4-(4-(6-((1-hydroxybutan-2-yl)(methyl)amino)-9-(pyridin-3-yl)-9H-purin-2-yl)piperazin-1-yl)phenol]
